pIC50: −log10 of the molar value.

The text below walks through data of article PMC9038752, “Molecular mechanisms of bifunctional vitamin D receptor agonist-histone deacetylase inhibitor hybrid molecules in triple-negative breast cancer” (Scientific Reports, 2022).

One assay concerns the target T1, purified HDAC6 (Homo sapiens, UniProt Q9UBN7).
T1 construct: purchased Cayman Chemical
T1 sequence (Q9UBN7 1-1215): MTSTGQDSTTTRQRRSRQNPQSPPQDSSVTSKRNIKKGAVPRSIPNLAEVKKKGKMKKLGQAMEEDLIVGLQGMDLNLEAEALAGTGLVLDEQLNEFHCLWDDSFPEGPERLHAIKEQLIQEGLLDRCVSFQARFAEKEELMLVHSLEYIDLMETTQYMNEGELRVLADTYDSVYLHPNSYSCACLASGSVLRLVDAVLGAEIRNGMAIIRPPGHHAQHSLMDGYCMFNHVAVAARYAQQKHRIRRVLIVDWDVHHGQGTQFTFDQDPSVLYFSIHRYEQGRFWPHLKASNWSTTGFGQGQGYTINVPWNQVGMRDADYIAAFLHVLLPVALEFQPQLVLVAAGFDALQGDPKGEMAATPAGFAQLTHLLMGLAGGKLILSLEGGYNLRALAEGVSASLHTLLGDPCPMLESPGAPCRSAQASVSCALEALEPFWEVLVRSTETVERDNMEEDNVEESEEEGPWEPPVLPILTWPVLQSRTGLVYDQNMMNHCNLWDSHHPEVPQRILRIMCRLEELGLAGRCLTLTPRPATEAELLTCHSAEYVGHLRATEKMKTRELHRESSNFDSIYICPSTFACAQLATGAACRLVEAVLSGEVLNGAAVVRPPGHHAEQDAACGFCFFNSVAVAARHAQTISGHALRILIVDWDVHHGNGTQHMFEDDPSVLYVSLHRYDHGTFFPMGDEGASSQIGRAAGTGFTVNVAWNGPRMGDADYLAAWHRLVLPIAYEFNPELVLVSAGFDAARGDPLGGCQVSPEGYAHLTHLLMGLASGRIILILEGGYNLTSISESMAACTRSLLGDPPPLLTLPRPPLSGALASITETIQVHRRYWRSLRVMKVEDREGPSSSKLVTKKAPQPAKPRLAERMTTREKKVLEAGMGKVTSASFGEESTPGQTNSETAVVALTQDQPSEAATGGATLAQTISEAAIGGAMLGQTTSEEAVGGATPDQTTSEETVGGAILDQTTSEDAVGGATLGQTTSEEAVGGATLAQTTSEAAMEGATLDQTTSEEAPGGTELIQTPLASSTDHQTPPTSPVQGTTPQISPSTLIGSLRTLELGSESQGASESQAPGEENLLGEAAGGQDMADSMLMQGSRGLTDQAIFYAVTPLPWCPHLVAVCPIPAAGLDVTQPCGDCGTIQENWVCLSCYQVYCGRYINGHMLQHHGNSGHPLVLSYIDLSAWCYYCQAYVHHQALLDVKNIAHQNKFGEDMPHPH
The assay is described as follows: Fluorogenic HDAC inhibition assay, HDAC6. Format: biochemical. The settings on record: purified HDAC6, fluorometric substrate. Here is the method:
(§1) The hybrids were assessed to determine their HDACi and VDR agonist activity as well as their antiproliferative properties relative to DK-406. HDACi activity was assessed in vitro using an acetylated lysine substrate that releases a fluorescent reporter upon HDACi deacetylation and subsequent trypsin digestion. Increasing sidechain length of pyrimidine hybrids enhanced the potency of HDAC6 inhibition, with several compounds inhibiting HDAC6 with a sub-micromolar IC50, similar to that of DK-406 (Fig. 4a). […] Next, we analyzed the effects of compounds on levels of H3K9 and H3K27 acetylation in 4TO7 cells, which are controlled by class I HDACs[29],[30]. […] We also tested the capacity of analogues to induce tubulin acetylation, controlled by class II enzyme HDAC6[32], in 4TO7 cells. Based on their relative efficacy in cytotoxicity assays (see below, Fig. 5c,d), we used 10^–5 M DK-406 and 10^–6 M AM-193 for these studies.
(§2) Figure 4 (a) Results of in vitro assays for inhibition of purified HDAC2 and HDAC6 by DK-406 and heterocyclic hybrids as measured by inhibition of deacetylation of a fluorometric substrate (see Methods for details). (b–d) Left: Western blotting analysis of histone 3 lysine 9 (H3K9; b), H3K27 (c), or acetylated tubulin (d), levels in 4TO7 cells treated with ligands for 6 h. Representative western-blots are shown from at least 3 biological replicates. Right: Graphs representing the average of the replicates, bars are mean ± SD. Each condition was compared to control. *: p ≤ 0.05, **: p ≤ 0.01, ***: p ≤ 0.001, ****: p ≤ 0.0001, ns: not significant. TEXT PRINTED IN THE PICTURE: (a) DK-406: HDAC6 IC50 (μM): 0.6; HDAC2 IC50 (μM): 0.5 | (a) AM-155: HDAC6 IC50 (μM): 2.8; HDAC2 IC50 (μM): 1.7 | (a) AM-171: HDAC6 IC50 (μM): 0.5; HDAC2 IC50 (μM): 9.6 | (a) AM-172: HDAC6 IC50 (μM): 0.3; HDAC2 IC50 (μM): 7.7 | (a) AM-191: HDAC6 IC50 (μM): 1.9; HDAC2 IC50 (μM): 8.1 | (a) AM-192: HDAC6 IC50 (μM): 0.5; HDAC2 IC50 (μM): 6.5 | (a) AM-193: HDAC6 IC50 (μM): 0.3; HDAC2 IC50 (μM): 7.2
(§3) Purified HDAC2 and HDAC6 were purchased from Cayman Chemical. Boc-Lys(Ac)-7-amino-4-methylcoumarin (BocLys(Ac)-AMC) was used as substrate for the HDAC assays. Substrate solution was prepared as follow: Boc(Lys-Ac)-AMC was dissolved in DMSO and diluted with HDAC buffer (15 mM tris–HCl [pH 8.1], 250 μM EDTA, 250 mM NaCl, 10% glycerol) to give 1 mM solutions containing 1.7% DMSO. Trypsin was used to stop the reaction, releasing free AMC. The trypsin solution was prepared as follow: trypsin was dissolved in HDAC buffer to give a concentration of 10 mg/mL. Release of AMC was monitored by measuring the fluorescence at 460 nm (lex = 390 nm) with a microplate reader (SpectraMax Gemini from Molecular Devices) at 37 °C. The AMC signals were recorded against a blank with buffer, substrate and trypsin but without the enzyme. All experiments were carried out at least in triplicate.
(§4) For HDAC inhibition assays, inhibitor diluted in 50 μL of HDAC buffer was mixed with 10 μL of diluted enzyme solution in HDAC buffer at room temperature. The HDAC reaction was started by adding 40 μL of substrate solution in HDAC buffer followed by 60 min of incubation with stirring at 37 °C. The reaction was stopped by adding 100 μL of trypsin solution. After a 30 min incubation with stirring at 37 °C, the release of AMC was monitored by measuring the fluorescence.

Another assay addresses T2, purified HDAC2 (Homo sapiens, UniProt Q92769).
T2 construct: purchased Cayman Chemical
The assay is described as follows: Fluorogenic HDAC inhibition assay, HDAC2. Format: biochemical. The settings on record: purified HDAC2, fluorometric substrate. How it is done:
as §1, §2, §3, §4

T2 sequence (Q92769 whole entry): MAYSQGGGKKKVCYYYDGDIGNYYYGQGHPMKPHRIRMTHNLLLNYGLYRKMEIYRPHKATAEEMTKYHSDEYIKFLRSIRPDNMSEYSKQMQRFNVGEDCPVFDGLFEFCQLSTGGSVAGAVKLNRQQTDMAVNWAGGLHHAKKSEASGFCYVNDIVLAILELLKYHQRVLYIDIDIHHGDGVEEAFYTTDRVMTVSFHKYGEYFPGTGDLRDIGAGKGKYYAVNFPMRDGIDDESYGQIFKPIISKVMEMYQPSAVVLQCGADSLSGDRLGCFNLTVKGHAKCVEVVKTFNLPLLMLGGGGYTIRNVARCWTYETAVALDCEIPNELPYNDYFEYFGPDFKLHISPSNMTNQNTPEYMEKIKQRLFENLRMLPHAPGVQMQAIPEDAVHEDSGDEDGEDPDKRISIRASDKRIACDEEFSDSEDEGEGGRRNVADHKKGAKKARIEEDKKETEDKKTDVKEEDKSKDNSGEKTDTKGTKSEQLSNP

`CCC(CC)(c1ccc(OCCCCCC(=O)NO)cc1)c1ccc(OCC(O)C(C)(C)C)c(C)n1` (centres unmarked) [AM-193]: the pIC50 (in general, −log10 of the IC50, conventionally taken in molar units) against purified HDAC6 is 6.52; at purified HDAC2, 5.14.

On to `CCC(CC)(c1ccc(C(=O)NCCCCCC(=O)NO)cc1)c1ccc(OCC(O)C(C)(C)C)c(C)c1` (centres unmarked) [DK-406], for which the pIC50 at purified HDAC6 was 6.22; on purified HDAC2, 6.30.

Consider `CCC(CC)(c1ccc(OCC(O)C(C)(C)C)c(C)c1)c1ccc(OCC(=O)NO)cn1` (centres unmarked) [AM-155], for which the negative-log IC50 (pIC50) at purified HDAC6 is 5.55; at purified HDAC2, 5.77.

Consider `CCC(CC)(c1ccc(OCC(O)C(C)(C)C)c(C)c1)c1ccc(OCCCC(=O)NO)cn1` (centres unmarked) [AM-171], for which the pIC50 at purified HDAC6 is 6.30; at purified HDAC2 it was 5.02.
